From patent US8461328B2, “Tricyclic heterocyclic compounds, compositions and methods of use thereof” (Genentech, Inc., priority 2010, dated 2013)

Columns and labels:
Format in all cases: biochemical
JAK1 = target: T1, JAK1 (Homo sapiens, UniProt P23458); experiment: JAK1 inhibition (Table 4); conditions: read-out: JAK1 Ki
T1 construct: made in house; host or cells: SF9 insect cells (baculovirus)

JAK3 = target: T2, JAK3 (Homo sapiens, UniProt P52333); experiment: JAK3 inhibition (Table 4); conditions: read-out: JAK3 Ki
T2 construct: made in house; host or cells: SF9 insect cells (baculovirus)

JAK2 = target: T3, JAK2 (Homo sapiens, UniProt O60674); experiment: JAK2 inhibition (Table 4); conditions: read-out: JAK2 Ki
T3 construct: made in house; host or cells: SF9 insect cells (baculovirus)

TYK2 = target: T4, TYK2 (Homo sapiens, UniProt P29597); experiment: TYK2 inhibition (Table 4)
T4 construct: made in house; host or cells: SF9 insect cells (baculovirus)
T4 sequence (P29597 873-1187): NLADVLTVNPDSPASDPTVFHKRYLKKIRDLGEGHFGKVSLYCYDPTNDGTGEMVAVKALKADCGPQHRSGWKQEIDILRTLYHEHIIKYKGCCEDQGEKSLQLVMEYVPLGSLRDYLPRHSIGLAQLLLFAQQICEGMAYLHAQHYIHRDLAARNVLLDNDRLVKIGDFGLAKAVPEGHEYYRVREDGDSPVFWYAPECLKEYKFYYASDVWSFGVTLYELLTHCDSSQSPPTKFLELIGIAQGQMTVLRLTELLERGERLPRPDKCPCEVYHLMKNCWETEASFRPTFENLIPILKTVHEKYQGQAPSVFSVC

T1 sequence (P23458 852-1154): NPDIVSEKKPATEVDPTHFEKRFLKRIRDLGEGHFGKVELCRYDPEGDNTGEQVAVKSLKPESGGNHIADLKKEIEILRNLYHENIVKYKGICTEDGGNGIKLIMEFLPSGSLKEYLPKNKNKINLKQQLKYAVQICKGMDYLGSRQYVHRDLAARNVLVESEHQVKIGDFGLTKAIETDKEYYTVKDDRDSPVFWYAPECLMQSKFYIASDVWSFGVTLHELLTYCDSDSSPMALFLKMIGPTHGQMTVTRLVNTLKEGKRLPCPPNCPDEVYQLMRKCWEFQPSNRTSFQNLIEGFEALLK
T3 sequence (O60674 812-1132): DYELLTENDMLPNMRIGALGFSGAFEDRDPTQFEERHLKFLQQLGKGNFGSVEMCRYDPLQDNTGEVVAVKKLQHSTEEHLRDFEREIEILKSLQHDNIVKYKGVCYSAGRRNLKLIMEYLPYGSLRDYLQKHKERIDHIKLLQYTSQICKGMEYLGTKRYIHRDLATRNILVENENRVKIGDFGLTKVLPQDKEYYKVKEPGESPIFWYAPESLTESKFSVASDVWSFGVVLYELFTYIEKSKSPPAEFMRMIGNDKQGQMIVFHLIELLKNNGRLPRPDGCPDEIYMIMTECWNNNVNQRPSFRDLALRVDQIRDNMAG
T2 sequence (P52333 783-1124): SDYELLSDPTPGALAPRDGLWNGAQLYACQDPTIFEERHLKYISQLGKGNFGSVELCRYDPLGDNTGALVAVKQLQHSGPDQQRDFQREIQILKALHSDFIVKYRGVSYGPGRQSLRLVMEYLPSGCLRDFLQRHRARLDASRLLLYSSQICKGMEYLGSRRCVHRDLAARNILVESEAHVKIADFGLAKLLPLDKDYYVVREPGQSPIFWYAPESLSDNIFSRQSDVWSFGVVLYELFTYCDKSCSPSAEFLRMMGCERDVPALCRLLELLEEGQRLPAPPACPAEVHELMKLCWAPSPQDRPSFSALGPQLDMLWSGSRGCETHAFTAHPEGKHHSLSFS

Ki (JAK1)	Ki (JAK3)	Ki (JAK2)	Ki (TYK2)	Compound
0.264 µM	0.563 µM	0.179 µM	1.1 µM	COCC(=O)NC1CCCC(n2cnc3cnc4[nH]ccc4c32)C1 (single isomer, unassigned) [Example 480, 2-Methoxy-N-[3-(6H-1,3,5,6-tetraaza-as-indacen-1-yl)-cyclohexyl]-acetamide]
0.127 µM	0.833 µM	0.268 µM	0.793 µM	COCC(=O)NC1CCCC(n2cnc3cnc4[nH]ccc4c32)C1 (single isomer, unassigned) [Example 481, 2-Methoxy-N-[3-(6H-1,3,5,6-tetraaza-as-indacen-1-yl)-cyclohexyl]-acetamide]
0.0558 µM	0.15 µM	0.0976 µM	0.845 µM	COCC(=O)NC1CCCC(n2cnc3cnc4[nH]ccc4c32)C1 (single isomer, unassigned) [Example 482, 2-Methoxy-N-[3-(6H-1,3,5,6-tetraaza-as-indacen-1-yl)-cyclohexyl]-acetamide]
0.0135 µM	0.128 µM	0.019 µM	0.0886 µM	OC1CCCC(n2nnc3cnc4[nH]ccc4c32)C1 (single isomer, unassigned) [Example 551, 3-(6H-1,2,3,5,6-Pentaaza-as-indacen-1-yl)-cyclohexanol]
0.00659 µM	0.0118 µM	0.0102 µM	0.0242 µM	OC1CCCC(n2nnc3cnc4[nH]ccc4c32)C1 (single isomer, unassigned) [Example 552, 3-(6H-1,2,3,5,6-Pentaaza-as-indacen-1-yl)-cyclohexanol]
0.00859 µM	0.0425 µM	0.0204 µM	0.0335 µM	OC1CCCC(n2nnc3cnc4[nH]ccc4c32)C1 (single isomer, unassigned) [Example 553, 3-(6H-1,2,3,5,6-Pentaaza-as-indacen-1-yl)-cyclohexanol]
0.0133 µM	0.0773 µM	0.0316 µM	0.0606 µM	OC1CCCC(n2nnc3cnc4[nH]ccc4c32)C1 (single isomer, unassigned) [Example 554, 3-(6H-1,2,3,5,6-Pentaaza-as-indacen-1-yl)-cyclohexanol]
0.0103 µM	0.0529 µM	0.024 µM	0.0385 µM	OC1CCCC(n2cnc3cnc4[nH]ccc4c32)C1 (single isomer, unassigned) [Example 559, 3-(6H-1,3,5,6-Tetraaza-as-indacen-1-yl)-cyclohexanol]
0.00814 µM	0.0375 µM	0.0132 µM	0.0473 µM	OC1CCCC(n2cnc3cnc4[nH]ccc4c32)C1 (single isomer, unassigned) [Example 560, 3-(6H-1,3,5,6-Tetraaza-as-indacen-1-yl)-cyclohexanol]
0.00729 µM	0.0145 µM	0.0179 µM	0.0245 µM	OC1CCCC(n2cnc3cnc4[nH]ccc4c32)C1 (single isomer, unassigned) [Example 561, 3-(6H-1,3,5,6-Tetraaza-as-indacen-1-yl)-cyclohexanol]
0.00458 µM	0.00589 µM	0.00755 µM	0.012 µM	OC1CCCC(n2cnc3cnc4[nH]ccc4c32)C1 (single isomer, unassigned) [Example 562, 3-(6H-1,3,5,6-Tetraaza-as-indacen-1-yl)-cyclohexanol]
1.02 µM	2.62 µM	2.94 µM	3.24 µM	c1cc2c(ncc3nc(C4CCCN4)n(C4CCCOC4)c32)[nH]1 (single isomer, unassigned) [Example 668]
0.137 µM	0.823 µM	0.913 µM	0.681 µM	C[C@@H](N)c1nc2cnc3[nH]ccc3c2n1C1CCCOC1 (single isomer, unassigned) [Example 669, 1-[1-(Tetrahydro-pyran-3-yl)-1,6-dihydro-1,2,3,5,6-tetraaza-as-indacen-2-yl]-ethylamine]
0.00745 µM	0.0277 µM	0.0555 µM	0.413 µM	CCOC(=O)NCCc1nc2cnc3[nH]ccc3c2n1C1CCN(CC)CC1(F)F (single isomer, unassigned) [Example 679, {2-[1-(1-Ethyl-3,3-difluoro-piperidin-4-yl)-1,6-dihydro-1,2,3,5,6-tetraaza-as-indacen-2-yl]-ethyl}-carbamic acid ethyl ester]
0.00732 µM	0.0284 µM	0.0563 µM	0.412 µM	CCOC(=O)NCCc1nc2cnc3[nH]ccc3c2n1C1CCN(CC)CC1(F)F (single isomer, unassigned) [Example 680, {2-[1-(1-Ethyl-3,3-difluoro-piperidin-4-yl)-1,6-dihydro-1,2,3,5,6-tetraaza-as-indacen-2-yl]-ethyl}-carbamic acid ethyl ester]
0.0028 µM	0.00901 µM	0.036 µM	0.158 µM	CCN1CCC(n2c(CCNS(C)(=O)=O)nc3cnc4[nH]ccc4c32)C(F)(F)C1 (single isomer, unassigned) [Example 805, N-{2-[1-(1-Ethyl-3,3-difluoro-piperidin-4-yl)-1,6-dihydro-1,3,5,6-tetraaza-as-indacen-2-yl]-ethyl}-methanesulfonamide]
0.00341 µM	0.0179 µM	0.0213 µM	0.179 µM	CCN1CCC(n2c(CCNS(C)(=O)=O)nc3cnc4[nH]ccc4c32)C(F)(F)C1 (single isomer, unassigned) [Example 806, N-{2-[1-(1-Ethyl-3,3-difluoro-piperidin-4-yl)-1,6-dihydro-1,3,5,6-tetraaza-as-indacen-2-yl]-ethyl}-methanesulfonamide]
0.0906 µM	0.261 µM	0.369 µM	0.749 µM	CC(O)c1nc2cnc3[nH]ccc3c2n1C1CC2CCC1O2 (single isomer, unassigned) [Example 846, endo-1-[1-(7-Oxa-bicyclo[2.2.1]hept-2-yl)-1,6-dihydro-1,3,5,6-tetraaza-as-indacen-2-yl]-ethanol]
0.105 µM	0.381 µM	0.53 µM	0.279 µM	CC(O)c1nc2cnc3[nH]ccc3c2n1C1CC2CCC1O2 (single isomer, unassigned) [Example 847, endo-1-[1-(7-Oxa-bicyclo[2.2.1]hept-2-yl)-1,6-dihydro-1,3,5,6-tetraaza-as-indacen-2-yl]-ethanol]
0.0508 µM	0.592 µM	0.515 µM	0.459 µM	CS(=O)(=O)NCc1nc2cnc3[nH]ccc3c2n1C1CC2CCC1O2 (single isomer, unassigned) [Example 849, endo-N-[1-(7-Oxa-bicyclo[2.2.1]hept-2-yl)-1,6-dihydro-1,3,5,6-tetraaza-as-indacen-2-ylmethyl]-methanesulfonamide]
0.0605 µM	0.106 µM	0.134 µM	0.361 µM	CS(=O)(=O)NCc1nc2cnc3[nH]ccc3c2n1C1CC2CCC1O2 (single isomer, unassigned) [Example 850, endo-N-[1-(7-Oxa-bicyclo[2.2.1]hept-2-yl)-1,6-dihydro-1,3,5,6-tetraaza-as-indacen-2-ylmethyl]-methanesulfonamide]
0.0259 µM	0.0244 µM	0.0533 µM	0.0499 µM	OCc1nc2cnc3[nH]ccc3c2n1C1CC2CCC1O2 (single isomer, unassigned) [Example 851, endo-[1-(7-Oxa-bicyclo[2.2.1]hept-2-yl)-1,6-dihydro-1,3,5,6-tetraaza-as-indacen-2-yl]-methanol]
0.0291 µM	0.117 µM	0.14 µM	0.0893 µM	OCc1nc2cnc3[nH]ccc3c2n1C1CC2CCC1O2 (single isomer, unassigned) [Example 852, endo-[1-(7-Oxa-bicyclo[2.2.1]hept-2-yl)-1,6-dihydro-1,3,5,6-tetraaza-as-indacen-2-yl]-methanol]
0.00388 µM	0.0279 µM	0.0222 µM	0.0265 µM	CCN1CCC(n2c([C@@H](C)O)nc3cnc4[nH]ccc4c32)C(F)(F)C1 (single isomer, unassigned) [Example 879]
0.00195 µM	0.00497 µM	0.0194 µM	0.0247 µM	CCN1CCC(n2c([C@@H](C)O)nc3cnc4[nH]ccc4c32)C(F)(F)C1 (single isomer, unassigned) [Example 880]
0.0147 µM	0.128 µM	0.0964 µM	0.0571 µM	CC(O)c1nc2cnc3[nH]ccc3c2n1C1CC2CCC1O2 (single isomer, unassigned) [Example 905, (o)-1-[1-(7-Oxa-bicyclo[2.2.1]hept-2-yl)-1,6-dihydro-1,3,5,6-tetraaza-as-indacen-2-yl]-ethanol]
0.024 µM	0.195 µM	0.142 µM	0.0769 µM	CC(O)c1nc2cnc3[nH]ccc3c2n1C1CC2CCC1O2 (single isomer, unassigned) [Example 907, (o)-1-[1-(7-Oxa-bicyclo[2.2.1]hept-2-yl)-1,6-dihydro-1,3,5,6-tetraaza-as-indacen-2-yl]-ethanol]
0.0798 µM	0.334 µM	0.403 µM	0.215 µM	CC(O)c1nc2cnc3[nH]ccc3c2n1C1CC2CCC1O2 (single isomer, unassigned) [Example 936, (endo)-1-[1-(7-Oxa-bicyclo[2.2.1]hept-2-yl)-1,6-dihydro-1,3,5,6-tetraaza-as-indacen-2-yl]-ethanol]
